Experiments:
[1] = test system: spleen cells; assay: Immunophenotyping on spleen cells, combination with 5 Fluorouracil; type: in vivo, C57/BLJ6 mice; details: N = 4
Protocol: (§1) After in vivo drugs analysis, the drugs were evaluated on whole blood for drug stability and toxicity. Furthermore, in vivo/ex vivo analysis was performed on normal and cyclophosphamide immunosuppressed animals plus 5Fu-treated animals. Cell immunophenotyping was performed on mouse-treatedblood and spleen. The following cell surface antigens were analyzed:
(§2) CD3 (all T cells), CD4 (T helper/inducer, binds class II-restricted T cells), CD8a (cytotoxic T cells, CTL adhesion), CD11a (T, B, NK, some stem cells, CTL adhesion anti LFA-1α), MAC-1 (monocyte/macrophage), NK (natural killer cells), Ly5 (B cells), CD45 (all leukocytes, protein tyrosine phosphates), and TCR (T cell receptor).
(§3) C57/BLJ6 mice (6-8 weeks old) were injected daily for 4 consecutive days, sacrificed at day 5 and immunophenotyping was performed on blood and spleen cells.
(§4) The cells were washed twice in PBS, resuspended in 1 ml of RPMI 2% FBS, and incubated for 45 min. on ice with monoclonal antibody. The cells were washed once, fixed with 1% paraformaldehyde, then analyzed using XL Coulter® counter.

[2] = test system: DA-3 mammary carcinoma; assay: Compound #1 with Cytoxan 28 mg/kg against DA-3 mammary carcinoma, tumor sizes (Example 94); type: in vivo, Balb/c mice; parameters: key: tumor volume = length × width²/2
Protocol: Parameters of effect were measured by inhibition of tumor outgrowth and growth rate [tumors measured along the longest axis (length) and the perpendicular shortest axis (width) and the tumor volumes (T.V.±S.E.) was calculated by the formula T.V.=length (cm)×(width cm)^2 /2.] assessment of body weight loss.
In another experiment, the CTX treatment was prolonged. Balb/c mice were injected s.c. with 5×10^5 DA-3 tumor cells at day 0. At day 4 when established tumors appeared, tumor-bearing animals were randomized (n=11/gr.) and injected with CTX (at 28 mg/kg) i.v. bolus injections at days 4, 11, and 18. […]

[3] = test system: blood cells; assay: Immunophenotyping on blood cells, combination with cyclophosphamide; type: in vivo, C57/BLJ6 mice; details: N = 4
Protocol: as §1, §2, §3, §4

[4] = test system: blood cells; assay: Immunophenotyping on blood cells of compound #1 treated mice; type: in vivo, C57/BLJ6 mice; parameters: unit not given here; details: N = 10; for CD8+ CD45+ (mean): daily 4 days
Protocol: as §1, §2, §3, §4

[5] = test system: spleen cells; assay: Immunophenotyping on spleen cells, combination with cyclophosphamide; type: in vivo, C57/BLJ6 mice; details: in combination with cyclophosphamide
Protocol: as §1, §2, §3, §4

[6] = test system: T cell response (mixed lymphocyte reaction); assay: Mixed lymphocyte reaction (MLR) assay; type: cell-based, C57B1/6 mice and DBA/2 mice; details: at 10^-9 - 10^-5 M
Protocol: Mixed lymphocyte reaction is an in vitro counterpart of the allograft rejection. Briefly, T cell response was obtained when cells taken from two inbred strains from two outbred individuals of any species were mixed in vitro in culture.
After 4 days incubation, ^3 H thymidine uptake and cytotoxicity assay (CTL) were performed.
3 C57B1/6 mice and 3 DBA/2 mice wre killed and lymphocytes prepared using lympholyte M. The cell concentration was adjusted to 10×10^6 cell/ml for each lysis. DBA/2 cells were irradiated with 3000 Rads. 1 ml of the C57 cells+1 ml of the DBA/2 cells+1 ml of the drug at 3 different concentrations were incubated together for 5 days. Positive control was IL-2 at 15 ng/ml final. After 5 days, the CTL and MLR tests were carried out.
The cells were resuspended and 100 μl of cell suspension were deposited in each of the 96 wells in the plate, 50 μl of Thymidine at 20 μCi/ml was added for 6 hrs. The cells were then collected and counted using a beta counter.

[7] = test system: spleen cells; assay: Immunophenotyping on spleen cells of compound #1 treated mice; type: in vivo, C57/BLJ6 mice; details: N = 10
Protocol: as §1, §2, §3, §4

[8] = Body weight, compound #1 with Cytoxan 20 mg/kg (Example 93); type: in vivo; details: compound #1 + CTX 20 mg/kg
Protocol: Combination of compound #1 (25 and 50 mg/kg i.p. daily) plus CTX (20 mg/kg i.v. single bolus) was evaluated against day 4 established DA-3 tumors.

[9] = test system: B cell activity (LPS), spleen mononuclear leukocytes; assay: Mitogenic proliferation on spleen cell suspension, B (LPS); type: cell-based, C57BL-6 mice; details: Mus musculus, Leukocyte, 72 h; at 10^-6 (M)
Source text: Mitogenic lectin (mitogen) is a protein which binds and cross-links specific cells surface carbohydrate determinants, and will polyclonally stimulate lymphoid cells. Lymphocyte activation by either antigens or mitogens results in intracellular changes and the subsequent development into a lymphoblast. Mitogenic stimulation of lymphocytes in vitro is believed to mimic the series of events which occur in vivo following their stimulation by specific antigens. PHA, ConA, and PWM, LPS mitogens can be used as a measurement of T cell and B cell activity, respectively.
Briefly, spleen mononuclear leukocytes from C57BL-6 mice were incubated in the presence or absence of mitogens with or without tested drugs. After 72 hours or 5 days, ^3 H thymidine incorporation was recorded as an indication of cell transformation and proliferation.
100 μl of a suspension of 2×10^6 cells/ml (2×10^5 cells/well) were incubated in presence of PHA or ConA or PWM or LPS at the following concentrations:
PHA=0.01% final concentration-0.001%
Cells were incubated in presence or absence of drugs for 72 hours. 0.5 or 1 μCi of tritiated thymidine (^3 H) was added per well the last 18 or 6 hours of incubation respectively. Cells were harvested and counted on a Beta counter.

With `CN(C)c1ncnc2c1ncn2CCCCCOC(=O)N[C@H](CCCNC(=N)N)C(=O)O` [Compound #1, N,N-Dimethylaminopurinyl Pentoxycarbonyl D-Arginine] as the compound, how does the “CD4+ CD45- (mean)” value ([1]; 5 FU + cpd #1 25 mg/kg) read?
Its value is 13.19.

And the “NK+ (mean)” value ([1]; 5 FU + cpd #1 25 mg/kg)?
Its value is 3.32.

What about the “CD4+ CD45- (mean)” value ([1]; 5 FU + cpd #1 50 mg/kg) of the same compound?
The value was 12.06.

And the “NK+ (mean)” value ([1]; 5 FU + cpd #1 50 mg/kg)?
Its value is 3.17.

What about the tumor size ([2]; BCH-1393 50 mg/kg + CTX 28 mg/kg, day 7) of the same compound?
The tumor size was 6.5.

And the tumor size ([2]; BCH-1393 50 mg/kg + CTX 28 mg/kg, day 9)?
The tumor size was 12.6.

And the tumor size ([2]; BCH-1393 50 mg/kg + CTX 28 mg/kg, day 11)?
The tumor size was 20.2.

And the tumor size ([2]; BCH-1393 50 mg/kg + CTX 28 mg/kg, day 14)?
The tumor size was 9.5.

What about the tumor size ([2]; BCH-1393 50 mg/kg + CTX 28 mg/kg, day 16) of the same compound?
The tumor size was 41.7.

And the tumor size ([2]; BCH-1393 50 mg/kg + CTX 28 mg/kg, day 18)?
The tumor size was 44.9.

And the tumor size ([2]; BCH-1393 50 mg/kg + CTX 28 mg/kg, day 21)?
The tumor size was 63.4.

And the tumor size ([2]; BCH-1393 50 mg/kg + CTX 28 mg/kg, day 23)?
Its tumor size is 69.6.

And the tumor size ([2]; BCH-1393 50 mg/kg + CTX 28 mg/kg, day 25)?
Its tumor size is 95.4.

And the tumor size ([2]; BCH-1393 50 mg/kg + CTX 28 mg/kg, day 28)?
The tumor size was 104.2.

What about the tumor size ([2]; BCH-1393 50 mg/kg + CTX 28 mg/kg, day 30) of the same compound?
Its tumor size is 115.8.

What about the tumor size ([2]; BCH-1393 50 mg/kg Ip (Days 3-28) + CTX 28 mg/kg Iv (days 4, 11, 18), day 4) of the same compound?
Its tumor size is 3.6.

And the tumor size ([2]; single agent (CTX 28 mg/kg days 4, 11, 18, or BCH-1393 50 mg/kg days 3-28), day 4)?
Its tumor size is 2.7.

And the tumor size ([2]; single agent (CTX 28 mg/kg or BCH-1393 50 mg/kg), day 7)?
The tumor size was 10.2.

And the tumor size ([2]; single agent (CTX 28 mg/kg or BCH-1393 50 mg/kg), day 9)?
The tumor size was 18.1.

And the tumor size ([2]; single agent (CTX 28 mg/kg or BCH-1393 50 mg/kg), day 11)?
The tumor size was 29.2.

What about the tumor size ([2]; single agent (CTX 28 mg/kg or BCH-1393 50 mg/kg), day 14) of the same compound?
Its tumor size is 50.1.

And the tumor size ([2]; single agent (CTX 28 mg/kg or BCH-1393 50 mg/kg), day 16)?
The tumor size was 58.5.

And the tumor size ([2]; single agent (CTX 28 mg/kg or BCH-1393 50 mg/kg), day 18)?
The tumor size was 66.3.

And the tumor size ([2]; single agent (CTX 28 mg/kg or BCH-1393 50 mg/kg), day 21)?
Its tumor size is 94.2.

And the tumor size ([2]; single agent (CTX 28 mg/kg or BCH-1393 50 mg/kg), day 23)?
Its tumor size is 131.4.

And the tumor size ([2]; single agent (CTX 28 mg/kg or BCH-1393 50 mg/kg), day 25)?
Its tumor size is 130.9.

And the tumor size ([2]; single agent (CTX 28 mg/kg or BCH-1393 50 mg/kg), day 28)?
Its tumor size is 152.5.

And the tumor size ([2]; single agent (CTX 28 mg/kg or BCH-1393 50 mg/kg), day 30)?
Its tumor size is 187.2.

And the “CP8+ CD45+ (mean)” value ([3]; CY + cpd #1 25 mg/kg)?
The value was 13.25.

What about the “CP8+ CD45+ (mean)” value ([3]; CY + cpd #1 50 mg/kg) of the same compound?
Its value is 20.8.

What about the “CD11b+ (mean)” value ([4]; 25 mg/kg) of the same compound?
Its value is 13.71.

What about the “NK+ CD3+ (mean)” value ([4]; 25 mg/kg) of the same compound?
Its value is 5.84.

What about the “NK+ CD3- (mean)” value ([4]; 25 mg/kg) of the same compound?
The value was 5.90.

And the “CD8+ CD45+ (mean)” value ([4]; 25 mg/kg)?
The value was 10.11.

What about the “CD11b+ (mean)” value ([4]; 50 mg/kg) of the same compound?
Its value is 9.68.

What about the “NK+ CD3+ (mean)” value ([4]; 50 mg/kg) of the same compound?
Its value is 3.25.

What about the “NK+ CD3- (mean)” value ([4]; 50 mg/kg) of the same compound?
Its value is 8.14.

And the “CD8+ CD45+ (mean)” value ([4]; 50 mg/kg)?
Its value is 8.65.

And the “Immunophenotyping, spleen” value [5]?
Its value is “no effect”.

And the MLR [6]?
The MLR was 1.5 - 4 ×.

What about the “Ly5 (mean)” value ([7]; 25 mg/kg) of the same compound?
The value was 54.08.

And the “TCR+ (mean)” value ([7]; 25 mg/kg)?
The value was 39.78.

What about the “Ly5 (mean)” value ([7]; 50 mg/kg) of the same compound?
Its value is 50.35.

What about the “TCR+ (mean)” value ([7]; 50 mg/kg) of the same compound?
Its value is 45.09.

And the body weight loss [8]?
The body weight loss was “No significant body weight loss”.

And the fold induction at 1 µM [9]?
The fold induction at 1 µM was 2.
